Laboratory results published in publication PMC5656653, “Evaluation of Ga-DOTA-(D-Asp)n as bone imaging agents: D-aspartic acid peptides as carriers to bone” (Scientific Reports, 2017).
Entries after “also recorded” stand apart in the source; their conditions may differ. Where a SMILES comes first, the peptide text is derived from it. [ ]: non-standard residue; d: D form. The star is where a group is joined. DOTA = O=C(O)CN1CCN(CC(=O)O)CCN(CC(=O)*)CCN(CC(=O)O)CC1

Test: Biodistribution experiments in normal mice after i.v. injection
Format: in vivo
Details: for Biodistribution of radioactivity, Blood / Biodistribution of radioactivity, Bone (Femur) / Biodistribution of radioactivity, Brain / Biodistribution of radioactivity, Heart / Biodistribution of radioactivity, Kidney / Biodistribution of radioactivity, Large-intestine / Biodistribution of radioactivity, Liver / Biodistribution of radioactivity, Lung / Biodistribution of radioactivity, Muscle / Biodistribution of radioactivity, Pancreas / Biodistribution of radioactivity, Small-intestine / Biodistribution of radioactivity, Spleen / F/B ratio (Femur:blood ratio) / Biodistribution of radioactivity, Stomach: mice, mean (SD); for Biodistribution of radioactivity, Stomach: footnote b; for tissue uptake dose at 10 min / tissue uptake dose at 1 h / tissue uptake dose at 3 h: male, ddY, total radioactivity, Biodistribution of radioactivity
Description: Experiments with animals were conducted in strict accordance with the Guidelines for the Care and Use of Laboratory Animals of Kanazawa University. The animal experimental protocols used were approved by the Committee on Animal Experimentation of Kanazawa University (Permit Number: AP-132633). Biodistribution experiments were performed after intravenous administration of each diluted tracer solution (37–740 kBq/100 μL) to 6-week-old male ddY mice (27–32 g, Japan SLC, Inc., Hamamatsu, Japan). Four or five mice at each time point after the administration of each compound were sacrificed by decapitation at 10, 60, and 180 min post-injection. Tissues of interest were taken and weighed. Complete left femurs were isolated as representative bone samples, radioactivity was determined using gamma counters (AccuFLEX γ ARC-8001 in the case of ^18F, Hitachi, Ltd.), and background counts and physical decay were corrected during counting.

[1] = mouse, in vivo, iv, Bone (Femur)
[2] = mouse, in vivo, iv, Large-intestine
[3] = mouse, in vivo, iv, Small-intestine

[18F-].[Na+] [[^18F]NaF, reference compound]
Biodistribution of radioactivity, Blood (i.v., 10 min after injection): 1.78 (0.23) % injected dose
Biodistribution of radioactivity, Bone (Femur) (i.v., 10 min after injection): 27.69 (3.15) % injected dose
Biodistribution of radioactivity, Brain (i.v., 10 min after injection): 0.10 (0.02) % injected dose
Biodistribution of radioactivity, Heart (i.v., 10 min after injection): 1.84 (0.41) % injected dose
Biodistribution of radioactivity, Kidney (i.v., 10 min after injection): 5.23 (2.31) % injected dose
Biodistribution of radioactivity, Large-intestine (i.v., 10 min after injection): 0.95 (0.22) % injected dose
Biodistribution of radioactivity, Liver (i.v., 10 min after injection): 1.34 (0.17) % injected dose
Biodistribution of radioactivity, Lung (i.v., 10 min after injection): 1.44 (0.19) % injected dose
Biodistribution of radioactivity, Muscle (i.v., 10 min after injection): 0.83 (0.13) % injected dose
Biodistribution of radioactivity, Pancreas (i.v., 10 min after injection): 0.87 (0.15) % injected dose
Biodistribution of radioactivity, Small-intestine (i.v., 10 min after injection): 1.31 (0.22) % injected dose
Biodistribution of radioactivity, Spleen (i.v., 10 min after injection): 1.10 (0.15) % injected dose
F/B ratio (Femur:blood ratio) (i.v., 10 min after injection): 15.59 (1.01)
Biodistribution of radioactivity, Stomach (i.v., 10 min after injection): 0.36 (0.04) % injected dose
Biodistribution of radioactivity, Blood (i.v., 60 min after injection): 0.11 (0.04) % injected dose
Biodistribution of radioactivity, Bone (Femur) (i.v., 60 min after injection): 39.96 (2.52) % injected dose
Biodistribution of radioactivity, Brain (i.v., 60 min after injection): 0.36 (0.52) % injected dose
Biodistribution of radioactivity, Heart (i.v., 60 min after injection): 0.15 (0.05) % injected dose
Biodistribution of radioactivity, Kidney (i.v., 60 min after injection): 1.13 (0.89) % injected dose
Biodistribution of radioactivity, Large-intestine (i.v., 60 min after injection): 1.21 (0.27) % injected dose
Biodistribution of radioactivity, Liver (i.v., 60 min after injection): 0.09 (0.02) % injected dose
Biodistribution of radioactivity, Lung (i.v., 60 min after injection): 0.10 (0.03) % injected dose
Biodistribution of radioactivity, Muscle (i.v., 60 min after injection): 0.07 (0.04) % injected dose
Biodistribution of radioactivity, Pancreas (i.v., 60 min after injection): 0.08 (0.08) % injected dose
Biodistribution of radioactivity, Small-intestine (i.v., 60 min after injection): 0.68 (0.10) % injected dose
Biodistribution of radioactivity, Spleen (i.v., 60 min after injection): 0.08 (0.02) % injected dose
F/B ratio (Femur:blood ratio) (i.v., 60 min after injection): 381.63 (84.17)
Biodistribution of radioactivity, Stomach (i.v., 60 min after injection): 0.06 (0.02) % injected dose
Biodistribution of radioactivity, Blood (i.v., 180 min after injection): 0.02 (0.00) % injected dose
Biodistribution of radioactivity, Bone (Femur) (i.v., 180 min after injection): 43.91 (2.64) % injected dose
Biodistribution of radioactivity, Brain (i.v., 180 min after injection): 0.05 (0.02) % injected dose
Biodistribution of radioactivity, Heart (i.v., 180 min after injection): 0.02 (0.01) % injected dose
Biodistribution of radioactivity, Kidney (i.v., 180 min after injection): 0.15 (0.08) % injected dose
Biodistribution of radioactivity, Large-intestine (i.v., 180 min after injection): 1.39 (0.19) % injected dose
Biodistribution of radioactivity, Liver (i.v., 180 min after injection): 0.02 (0.00) % injected dose
Biodistribution of radioactivity, Lung (i.v., 180 min after injection): 0.03 (0.01) % injected dose
Biodistribution of radioactivity, Muscle (i.v., 180 min after injection): 0.01 (0.01) % injected dose
Biodistribution of radioactivity, Pancreas (i.v., 180 min after injection): 0.02 (0.03) % injected dose
Biodistribution of radioactivity, Small-intestine (i.v., 180 min after injection): 0.06 (0.02) % injected dose
Biodistribution of radioactivity, Spleen (i.v., 180 min after injection): 0.02 (0.00) % injected dose
F/B ratio (Femur:blood ratio) (i.v., 180 min after injection): 1983.88 (256.88)
Biodistribution of radioactivity, Stomach (i.v., 180 min after injection): 0.13 (0.14) % injected dose
Accumulation of radioactivity in bone (in words) (normal mice, i.v.): high accumulation and retention of radioactivity in bone; also recorded: highest bone uptake

O=C(O)C[C@@H](NC(=O)[C@@H](CC(=O)O)NC(=O)CN1CCN(CC(=O)O)CCN(CC(=O)O)CCN(CC(=O)O)CC1)C(=O)O [^67Ga-DOTA-(D-Asp)2, metal not drawn] ({DOTA}-[dD]-[dD]-OH)
tissue uptake dose at 10 min (mouse, in vivo, iv, Blood): 2.19 %ID
tissue uptake dose at 1 h (mouse, in vivo, iv, Blood): 0.24 %ID
tissue uptake dose at 3 h (mouse, in vivo, iv, Blood): 0.05 %ID
tissue uptake dose at 10 min [1]: 1.57 %ID
tissue uptake dose at 1 h [1]: 0.88 %ID
tissue uptake dose at 3 h [1]: 0.49 %ID
tissue uptake dose at 10 min (mouse, in vivo, iv, Brain): 0.07 %ID
tissue uptake dose at 1 h (mouse, in vivo, iv, Brain): 0.02 %ID
tissue uptake dose at 3 h (mouse, in vivo, iv, Brain): 0.01 %ID
tissue uptake dose at 10 min (mouse, in vivo, iv, Heart): 0.86 %ID
tissue uptake dose at 1 h (mouse, in vivo, iv, Heart): 0.11 %ID
tissue uptake dose at 3 h (mouse, in vivo, iv, Heart): 0.06 %ID
tissue uptake dose at 10 min (mouse, in vivo, iv, Kidney): 7.61 %ID
tissue uptake dose at 1 h (mouse, in vivo, iv, Kidney): 6.33 %ID
tissue uptake dose at 3 h (mouse, in vivo, iv, Kidney): 1.42 %ID
tissue uptake dose at 10 min [2]: 0.37 %ID
tissue uptake dose at 1 h [2]: 0.12 %ID
tissue uptake dose at 3 h [2]: 0.38 %ID
tissue uptake dose at 10 min (mouse, in vivo, iv, Liver): 0.57 %ID
tissue uptake dose at 1 h (mouse, in vivo, iv, Liver): 0.31 %ID
tissue uptake dose at 3 h (mouse, in vivo, iv, Liver): 0.11 %ID
tissue uptake dose at 10 min (mouse, in vivo, iv, Lung): 1.45 %ID
tissue uptake dose at 1 h (mouse, in vivo, iv, Lung): 0.26 %ID
tissue uptake dose at 3 h (mouse, in vivo, iv, Lung): 0.08 %ID
tissue uptake dose at 10 min (mouse, in vivo, iv, Muscle): 0.53 %ID
tissue uptake dose at 1 h (mouse, in vivo, iv, Muscle): 0.11 %ID
tissue uptake dose at 3 h (mouse, in vivo, iv, Muscle): 0.08 %ID
tissue uptake dose at 10 min (mouse, in vivo, iv, Pancreas): 0.57 %ID
tissue uptake dose at 1 h (mouse, in vivo, iv, Pancreas): 0.15 %ID
tissue uptake dose at 3 h (mouse, in vivo, iv, Pancreas): 0.09 %ID
tissue uptake dose at 10 min [3]: 0.5 %ID
tissue uptake dose at 1 h [3]: 0.14 %ID
tissue uptake dose at 3 h [3]: 0.08 %ID
tissue uptake dose at 10 min (mouse, in vivo, iv, Spleen): 0.5 %ID
tissue uptake dose at 1 h (mouse, in vivo, iv, Spleen): 0.24 %ID
tissue uptake dose at 3 h (mouse, in vivo, iv, Spleen): 0.08 %ID
tissue uptake dose at 10 min (mouse, in vivo, iv, Stomach): 0.24 %ID
tissue uptake dose at 1 h (mouse, in vivo, iv, Stomach): 0.06 %ID
tissue uptake dose at 3 h (mouse, in vivo, iv, Stomach): 0.36 %ID
Accumulation of radioactivity in bone (in words) (mouse, in vivo, iv): subtle accumulation of radioactivity in bone

O=C(O)C[C@@H](NC(=O)[C@@H](CC(=O)O)NC(=O)[C@@H](CC(=O)O)NC(=O)[C@@H](CC(=O)O)NC(=O)[C@@H](CC(=O)O)NC(=O)CN1CCN(CC(=O)O)CCN(CC(=O)O)CCN(CC(=O)O)CC1)C(=O)O [^67Ga-DOTA-(D-Asp)5, metal not drawn] ({DOTA}-[dD][dD][dD][dD][dD]-OH)
tissue uptake dose at 1 h (mouse, in vivo, iv, Blood): 0.27 %ID
tissue uptake dose at 3 h (mouse, in vivo, iv, Blood): 0.13 %ID
tissue uptake dose at 10 min [1]: 6.78 %ID
tissue uptake dose at 1 h [1]: 5.01 %ID
tissue uptake dose at 3 h [1]: 2.8 %ID
tissue uptake dose at 10 min (mouse, in vivo, iv, Brain): 0.1 %ID
tissue uptake dose at 1 h (mouse, in vivo, iv, Brain): 0.02 %ID
tissue uptake dose at 3 h (mouse, in vivo, iv, Brain): 0.01 %ID
tissue uptake dose at 10 min (mouse, in vivo, iv, Heart): 1.03 %ID
tissue uptake dose at 1 h (mouse, in vivo, iv, Heart): 0.12 %ID
tissue uptake dose at 3 h (mouse, in vivo, iv, Heart): 0.06 %ID
tissue uptake dose at 10 min (mouse, in vivo, iv, Kidney): 12 %ID
tissue uptake dose at 1 h (mouse, in vivo, iv, Kidney): 6.31 %ID
tissue uptake dose at 3 h (mouse, in vivo, iv, Kidney): 1.45 %ID
tissue uptake dose at 10 min [2]: 0.47 %ID
tissue uptake dose at 1 h [2]: 0.22 %ID
tissue uptake dose at 3 h [2]: 0.22 %ID
tissue uptake dose at 10 min (mouse, in vivo, iv, Liver): 0.67 %ID
tissue uptake dose at 1 h (mouse, in vivo, iv, Liver): 0.22 %ID
tissue uptake dose at 3 h (mouse, in vivo, iv, Liver): 0.14 %ID
tissue uptake dose at 10 min (mouse, in vivo, iv, Lung): 2.03 %ID
tissue uptake dose at 1 h (mouse, in vivo, iv, Lung): 0.3 %ID
tissue uptake dose at 3 h (mouse, in vivo, iv, Lung): 0.09 %ID
tissue uptake dose at 10 min (mouse, in vivo, iv, Muscle): 0.68 %ID
tissue uptake dose at 1 h (mouse, in vivo, iv, Muscle): 0.13 %ID
tissue uptake dose at 3 h (mouse, in vivo, iv, Muscle): 0.07 %ID
tissue uptake dose at 10 min (mouse, in vivo, iv, Pancreas): 0.72 %ID
tissue uptake dose at 1 h (mouse, in vivo, iv, Pancreas): 0.25 %ID
tissue uptake dose at 3 h (mouse, in vivo, iv, Pancreas): 0.06 %ID
tissue uptake dose at 10 min [3]: 0.55 %ID
tissue uptake dose at 1 h [3]: 0.23 %ID
tissue uptake dose at 3 h [3]: 0.18 %ID
tissue uptake dose at 10 min (mouse, in vivo, iv, Spleen): 0.56 %ID
tissue uptake dose at 1 h (mouse, in vivo, iv, Spleen): 0.16 %ID
tissue uptake dose at 3 h (mouse, in vivo, iv, Spleen): 0.11 %ID
tissue uptake dose at 10 min (mouse, in vivo, iv, Stomach): 0.32 %ID
tissue uptake dose at 1 h (mouse, in vivo, iv, Stomach): 0.1 %ID
tissue uptake dose at 3 h (mouse, in vivo, iv, Stomach): 0.48 %ID
Accumulation of radioactivity in bone (in words) (mouse, in vivo, iv): moderate accumulation of radioactivity in bone
